Read-outs that look alike come from different tables or passages of the source.

In data set [1] the test system is 22RV1 cells. The experiment in a line: Cell proliferation inhibition assay in 22RV1 cells (CellTiter-Glo, 7 days). It counts as cell-based, human. The settings on record: Homo sapiens, 22Rv1, 168 h. In short, it runs like this:
(§1)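 LNCaP and 22RV1 human prostate cancer cells, 3000 per well, exposed to graded compound for 7 days at 37°C, 5% CO2; LNCaP got 0.2 nM DHT 1 h after compound. Viability by CellTiter-Glo luminescence; IC50 from four-parameter variable-slope fit.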
In general terms: ATP-based viability assays read luminescence as a measure of living cells.

For data set [2], the system named is LNCaP cells. Nature of the data set: Cell proliferation inhibition assay in LNCaP cells (0.2 nM DHT, CellTiter-Glo, 7 days). It counts as cell-based, human. The settings on record: Homo sapiens, LNCaP, 168 h. In short, it runs like this:
as §1

Data set [3] in a line: Mouse pharmacokinetic test. Format: in vivo, ICR mice. The settings on record: plasma; for bioavailability: PO-30mpk vs IV-0.5mpk; for Tmax: read-out: Tmax. Summed up: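 Male naive ICR mice (25–30 g, n=3 per route) received a single intravenous or oral dose, with feeding resumed 4 h post-dose. Blood was centrifuged at 4°C, and plasma was stored at -80°C until analysis.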
Data set [4] has as its target T1, CYP2C19 (Homo sapiens, UniProt P33261).
T1 construct: co-incubated with human liver microsomes; from tissue; host or cells: human liver microsomes
The experiment in a line: CYP inhibition assay in human liver microsomes. It counts as in vitro ADME. The settings on record: human liver microsomes, NADPH; read-out: CYPs 2C19 (IC50). As to the method: (§2) Test Example 3: CYP Inhibition Assay
(§3) An in vitro assay system was used to evaluate the effects of the compounds on the activities of several human liver microsomal cytochrome P450 (CYP) isozymes (CYP1A2, CYP2C9, CYP2D6, CYP3A4 (testosterone/midazolam), CYP2C19, and CYP2C8). Specific probe substrates for CYP450 isozymes were co-incubated with human liver microsomes and the compound at various concentrations (0, 0.0300, 0.100, 0.300, 1.00, 3.00, 10.0 µM). The reaction was initiated by adding the coenzyme NADPH. After the reaction was completed, the samples were processed, and the metabolites generated from the probe substrates were detected by liquid chromatography-tandem mass spectrometry (LC-MS/MS). Based on the resulting dose-response curves, the IC50 values of the test compounds for the probe substrate reactions catalyzed by each CYP isozyme were calculated.
(In general: Liver microsomes are a subcellular fraction often used to study metabolism.)

The target in data set [5] is T2, CYP2C8 (Homo sapiens, UniProt P10632).
T2 construct: co-incubated with human liver microsomes; from tissue; host or cells: human liver microsomes
T2 sequence (P10632 1-490): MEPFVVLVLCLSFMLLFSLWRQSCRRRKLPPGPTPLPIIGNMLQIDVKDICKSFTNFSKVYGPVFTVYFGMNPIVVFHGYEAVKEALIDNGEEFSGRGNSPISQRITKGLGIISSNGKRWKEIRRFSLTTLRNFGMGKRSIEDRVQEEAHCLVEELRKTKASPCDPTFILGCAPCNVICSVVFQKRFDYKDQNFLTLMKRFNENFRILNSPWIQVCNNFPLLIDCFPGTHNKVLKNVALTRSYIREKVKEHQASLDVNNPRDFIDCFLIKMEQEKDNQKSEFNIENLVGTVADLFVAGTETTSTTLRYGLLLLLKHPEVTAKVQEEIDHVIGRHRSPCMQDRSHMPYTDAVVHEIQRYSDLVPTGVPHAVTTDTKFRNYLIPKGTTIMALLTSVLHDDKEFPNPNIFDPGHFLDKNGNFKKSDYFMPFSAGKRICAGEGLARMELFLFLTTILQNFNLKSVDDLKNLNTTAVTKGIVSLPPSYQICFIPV
The experiment in a line: CYP inhibition assay in human liver microsomes. Format: in vitro ADME. The settings on record: human liver microsomes, NADPH; read-out: CYPs 2C8 (IC50). As to the method: as §2, §3

In data set [6] the target is T3, CYP2C9 (Homo sapiens, UniProt P11712).
T3 construct: co-incubated with human liver microsomes; from tissue; host or cells: human liver microsomes
T3 sequence (P11712 whole entry): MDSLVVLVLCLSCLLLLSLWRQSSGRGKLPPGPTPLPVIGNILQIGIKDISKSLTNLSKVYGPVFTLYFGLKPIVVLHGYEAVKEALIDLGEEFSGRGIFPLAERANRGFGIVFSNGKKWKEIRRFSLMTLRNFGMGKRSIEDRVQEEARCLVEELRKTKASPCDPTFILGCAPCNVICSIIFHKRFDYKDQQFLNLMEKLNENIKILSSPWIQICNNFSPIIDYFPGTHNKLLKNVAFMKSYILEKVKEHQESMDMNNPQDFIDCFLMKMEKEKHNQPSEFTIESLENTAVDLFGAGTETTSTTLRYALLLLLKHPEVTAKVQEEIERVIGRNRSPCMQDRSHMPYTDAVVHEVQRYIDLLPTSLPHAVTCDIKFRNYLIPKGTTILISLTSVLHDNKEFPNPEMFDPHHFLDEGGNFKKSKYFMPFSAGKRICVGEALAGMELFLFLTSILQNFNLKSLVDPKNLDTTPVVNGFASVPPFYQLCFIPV
Nature of the data set: CYP inhibition assay in human liver microsomes. It counts as in vitro ADME. The settings on record: human liver microsomes, NADPH; read-out: CYPs 2C9 (IC50). The procedure: as §2, §3

Data set [7] addresses T4, CYP3A4 (testosterone/midazolam) (Homo sapiens, UniProt P08684).
T4 construct: co-incubated with human liver microsomes; from tissue; host or cells: human liver microsomes
Nature of the data set: CYP inhibition assay in human liver microsomes. It counts as in vitro ADME. The procedure: as §2, §3

[8] abbreviates: probe substrate midazolam, read-out: CYPs 3A4 (Midazolam) (IC50).
The mark [9] stands for this setting: probe substrate testosterone, read-out: CYPs 3A4 (Testosterone) (IC50).

T1 sequence (P33261 whole entry): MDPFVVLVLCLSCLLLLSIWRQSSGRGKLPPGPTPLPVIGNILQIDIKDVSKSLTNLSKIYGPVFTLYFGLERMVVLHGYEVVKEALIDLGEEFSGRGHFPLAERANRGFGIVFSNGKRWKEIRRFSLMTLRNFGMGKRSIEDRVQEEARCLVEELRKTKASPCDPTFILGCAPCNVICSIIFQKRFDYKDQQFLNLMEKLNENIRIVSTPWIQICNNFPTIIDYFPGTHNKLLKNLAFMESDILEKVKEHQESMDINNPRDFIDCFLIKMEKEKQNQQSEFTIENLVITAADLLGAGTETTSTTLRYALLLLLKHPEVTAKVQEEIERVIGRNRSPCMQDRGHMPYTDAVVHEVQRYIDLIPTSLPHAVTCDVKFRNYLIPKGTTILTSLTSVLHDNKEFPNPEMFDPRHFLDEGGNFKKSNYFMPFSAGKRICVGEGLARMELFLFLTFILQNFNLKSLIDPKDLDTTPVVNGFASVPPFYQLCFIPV
T4 sequence (P08684 whole entry): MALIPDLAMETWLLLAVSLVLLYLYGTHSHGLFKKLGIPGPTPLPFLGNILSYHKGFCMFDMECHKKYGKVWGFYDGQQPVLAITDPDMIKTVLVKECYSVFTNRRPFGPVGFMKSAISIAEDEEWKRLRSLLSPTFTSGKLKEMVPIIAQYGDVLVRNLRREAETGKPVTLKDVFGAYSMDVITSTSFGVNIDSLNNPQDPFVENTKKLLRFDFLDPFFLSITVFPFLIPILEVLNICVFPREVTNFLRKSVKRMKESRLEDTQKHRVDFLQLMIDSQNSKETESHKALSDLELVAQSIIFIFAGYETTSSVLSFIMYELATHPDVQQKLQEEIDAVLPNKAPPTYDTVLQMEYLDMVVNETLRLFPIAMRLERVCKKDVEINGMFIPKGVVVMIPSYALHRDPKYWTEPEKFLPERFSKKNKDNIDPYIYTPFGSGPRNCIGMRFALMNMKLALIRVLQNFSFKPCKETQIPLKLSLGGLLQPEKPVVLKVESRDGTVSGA

As usually defined, the IC50 is the point on the concentration scale where inhibition reaches its midpoint. In general, clearance refers to the rate of elimination divided by the concentration. The term bioavailability denotes the share of a dose that reaches the circulation, judged against a reference dose that is usually intravenous. Low values mean little systemic uptake, high ones much systemic uptake. As a reminder, the AUC(0-inf) is the area under the concentration-time curve extrapolated to infinity. A higher AUC(0-inf) goes with high exposure. Usually half-life stands for how long it takes for the measured level to halve. A higher half-life goes with slow decline. By Cmax is commonly meant the highest concentration seen after dosing. What is called Tmax is the time from dosing to the highest level. Take `CC(C)(c1ccc(-c2ccc(OCc3ccc(-c4cnc(P(C)(C)=O)nc4)cc3)cc2)cc1)c1cc(Cl)c(OCCCl)c(C#N)c1` [Compound 136]: the IC50 in data set [1] is 0.23 µM; in data set [2], 0.52 µM; in data set [4], over 10 µM; in data set [5], over 10 µM; in data set [6], over 10 µM; in data set [7] (setting [8]) it was over 10 µM. Moreover, the IC50 in data set [7] (setting [9]) is over 10 µM. The compound also yielded a C0 in data set [3] (0.5 mg/kg, IV-0.5mpk) of 3730 ng/mL. The same compound gave a clearance in data set [3] (0.5 mg/kg, IV-0.5mpk) of 0.49 mL/min/kg. The compound also gave a bioavailability in data set [3] (30 mg/kg) of 23.5%. Moreover, the AUC(0-inf) in data set [3] (iv, 0.5 mg/kg, IV-0.5mpk) came to 17.1 µg·h/mL; in data set [3] (po, 30 mg/kg, PO-30mpk) it was 242 µg·h/mL. Further, the half-life in data set [3] (iv, 0.5 mg/kg, IV-0.5mpk) was 14.6 h; in data set [3] (po, 30 mg/kg, PO-30mpk), 16.6 h. The compound also displayed a Cmax in data set [3] (po, 30 mg/kg, PO-30mpk) of 10100 ng/mL. Also, in data set [3] (po, 30 mg/kg, PO-30mpk), the Tmax was 7 h.

Regarding `CC(C)(c1ccc(-c2ccc(C#Cc3cnc(P(C)(C)=O)nc3)cc2)cc1)c1cc(Cl)c(OCCCl)c(C#N)c1` [Compound 109], the IC50 in data set [1] was 0.12 µM; in data set [2], 0.57 µM; in data set [4], over 10 µM; in data set [5], 8.8 µM; in data set [6] it was over 10 µM; in data set [7] (setting [8]), over 10 µM. For the same compound, the IC50 in data set [7] (setting [9]) was over 10 µM. Further, the C0 in data set [3] (0.5 mg/kg, IV-0.5mpk) came to 1580 ng/mL. For the same compound, the clearance in data set [3] (0.5 mg/kg, IV-0.5mpk) came to 0.56 mL/min/kg. The bioavailability in data set [3] (30 mg/kg) worked out at 93.6%. For the same compound, the AUC(0-inf) came to 15.5 µg·h/mL in data set [3] (iv, 0.5 mg/kg, IV-0.5mpk) and 870 µg·h/mL in data set [3] (po, 30 mg/kg, PO-30mpk). Also, the half-life is 13.8 h in data set [3] (iv, 0.5 mg/kg, IV-0.5mpk) and 27.1 h in data set [3] (po, 30 mg/kg, PO-30mpk). Further, in data set [3] (po, 30 mg/kg, PO-30mpk), the Cmax turned out to be 29200 ng/mL. Besides, the Tmax in data set [3] (po, 30 mg/kg, PO-30mpk) was found to be 4 h.

Consider `CC(C)(c1ccc(-c2cnc(OCc3ccnc(N4CC5(CCS5(=O)=O)C4)n3)cn2)cc1)c1cc(Cl)c(OCCCl)c(C#N)c1` [Compound 376], for which the IC50 in data set [1] is 0.27 µM; in data set [2] it was 0.1 µM; in data set [4] it was over 10 µM; in data set [5], over 10 µM; in data set [6], over 10 µM; in data set [7] (setting [8]), over 10 µM. For the same compound, in data set [7] (setting [9]), the IC50 was over 10 µM. Besides, in data set [3] (po, 30 mg/kg, PO-30mpk), the AUC(0-inf) turned out to be 2300 µg·h/mL. Also, the Cmax in data set [3] (po, 30 mg/kg, PO-30mpk) came out at 131000 ng/mL. The same compound showed a half-life in data set [3] (po, 30 mg/kg, PO-30mpk) of 23 h. Moreover, the Tmax in data set [3] (po, 30 mg/kg, PO-30mpk) stood at 4 h.

With `CC(C)(c1ccc(-c2ccc(OCC34CC(c5cnc(P(C)(C)=O)nc5)(C3)C4)cc2)cc1)c1cc(Cl)c(OCCCl)c(C#N)c1` [Compound 320], the IC50 in data set [1] was 0.079 µM; in data set [2] it was 0.26 µM; in data set [4], over 10 µM; in data set [5] it was 9.1 µM; in data set [6] it was over 10 µM; in data set [7] (setting [8]), over 10 µM. In addition, the IC50 in data set [7] (setting [9]) was over 10 µM.

Turning to `CC(C)(c1ccc(-c2cnc(OCc3ccnc(N4CC(S(=O)(=O)C5CC5)C4)n3)cn2)cc1)c1cc(Cl)c(OCCCl)c(C#N)c1` [Compound 387], the IC50 in data set [1] was 0.22 µM; in data set [2] it was 0.05 µM; in data set [4] it was over 10 µM; in data set [5], over 10 µM; in data set [6] it was 1.9 µM; in data set [7] (setting [8]), over 10 µM. Further, the IC50 in data set [7] (setting [9]) is over 10 µM.

Take `CC(C)(c1ccc(-c2cnc(OCc3ccc(-c4cnc(P(C)(C)=O)cn4)cc3)cn2)cc1)c1cc(Cl)c(OCCCl)c(C#N)c1` [Compound 381]: the IC50 is 0.35 µM in data set [1]; 0.11 µM in data set [2]; over 10 µM in data set [4]; over 10 µM in data set [5]; 5.8 µM in data set [6]; over 10 µM in data set [7] (setting [8]). The IC50 in data set [7] (setting [9]) was over 10 µM.

Consider `CC(C)(c1ccc(-c2cnc(OCc3ccnc(N4CC5(C4)CS(=N)(=O)C5)n3)cn2)cc1)c1cc(Cl)c(OCCCl)c(C#N)c1` [Compound 391], for which the IC50 is 0.46 µM in data set [1]; 0.091 µM in data set [2]; over 10 µM in data set [4]; over 10 µM in data set [5]; 10 µM in data set [6]; over 10 µM in data set [7] (setting [8]). Moreover, in data set [7] (setting [9]), the IC50 was over 10 µM.

Source of the values: patent EP4778922A1, “BICYCLIC COMPOUND, AND PREPARATION METHOD THEREFOR AND PHARMACEUTICAL USE THEREOF” (Shanghai Jeyou Pharmaceutical Co., Ltd., priority 2023, dated 2025).
